The source of these data is US12122763B2, “Substituted piperidines for androgen receptor degradation” (UBIX THERAPEUTICS, INC., priority 2020, dated 2024).

The inhibition is how much of the control response was suppressed. Lower therefore signals a response near the control.

What all share (type): cell-based
The target of test [1] is T1, AR-V7 (Homo sapiens, UniProt P10275).
T1 sequence (P10275 1-644 isoform P10275-3): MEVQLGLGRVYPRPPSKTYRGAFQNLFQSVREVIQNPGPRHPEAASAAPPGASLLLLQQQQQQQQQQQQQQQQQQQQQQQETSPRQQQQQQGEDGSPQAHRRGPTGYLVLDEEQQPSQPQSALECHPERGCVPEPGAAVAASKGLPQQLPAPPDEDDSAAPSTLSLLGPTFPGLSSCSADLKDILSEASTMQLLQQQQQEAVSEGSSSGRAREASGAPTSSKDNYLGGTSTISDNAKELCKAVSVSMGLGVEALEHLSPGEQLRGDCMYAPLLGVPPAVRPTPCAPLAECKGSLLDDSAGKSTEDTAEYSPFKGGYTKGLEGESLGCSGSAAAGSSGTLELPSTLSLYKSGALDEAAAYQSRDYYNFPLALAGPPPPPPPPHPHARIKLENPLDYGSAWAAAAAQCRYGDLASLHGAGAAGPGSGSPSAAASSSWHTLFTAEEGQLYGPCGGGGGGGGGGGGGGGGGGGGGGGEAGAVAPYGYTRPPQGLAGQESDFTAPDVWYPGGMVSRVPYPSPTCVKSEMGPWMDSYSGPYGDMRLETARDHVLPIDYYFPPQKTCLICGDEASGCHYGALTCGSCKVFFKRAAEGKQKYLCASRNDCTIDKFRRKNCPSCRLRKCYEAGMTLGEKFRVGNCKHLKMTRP
The test can be described thus: Reduction of expression of AR splicing variant AR-V7. The following applies: at a concentration of 100 nM. An excerpt:
In addition, another mechanism by which resistance to existing treatments occurs is the expression of AR splicing variants (eg, AR-V7). The compounds of the present invention are excellent in reducing the expression of these variants (eg, AR-V7), and thus have a better anti-proliferative effect in AR-V7 positive prostate cancer cells. For example, the compounds of Examples 6 and 169 of the present disclosure inhibited the expression of AR-V7 by 87% and 48%, respectively, at a concentration of 100 nM.

Test [2] concerns the target T2, Androgen Receptor (AR) protein (Homo sapiens, UniProt P10275, T878A).
T2 construct: endogenous in cells; host or cells: LNCaP
The test can be described thus: Androgen Receptor (AR) protein degradation assay in LNCaP cells, western blotting. The following applies: 20 h; for inhibition at 0.01 µM: 0.01 μM compound; for inhibition at 0.1 µM: 0.1 μM compound; for inhibition at 1 µM: 1 μM compound. The gist of the method: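 LNCaP prostate cancer cells were cultured 3 days, then treated with compound for 20 h. Lysates in 1% SDS buffer were normalised by BCA, and 8 μg protein was run on 4–12% Bis-Tris gels. AR was immunoblotted with chemiluminescence, using GAPDH/β-actin as loading controls.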

Test [3] deals with T877A AR mutant (Homo sapiens, UniProt P10275, T878A). The test can be described thus: Degradation of AR mutant T877A. The settings on record: at a concentration of 100 nM. The source says: On the other hand, the compounds of the present invention have excellent degradation activity against AR mutants (T877A, M896V, F876L, H874Y, L702H, W741C, etc.). Since resistance to existing anti-androgen receptor drugs can be caused by AR mutation, the excellent AR mutant-degrading activity of the compounds of the present invention can help overcome resistance to existing drugs.
Sequence of T877A AR mutant (P10275 whole entry T878A): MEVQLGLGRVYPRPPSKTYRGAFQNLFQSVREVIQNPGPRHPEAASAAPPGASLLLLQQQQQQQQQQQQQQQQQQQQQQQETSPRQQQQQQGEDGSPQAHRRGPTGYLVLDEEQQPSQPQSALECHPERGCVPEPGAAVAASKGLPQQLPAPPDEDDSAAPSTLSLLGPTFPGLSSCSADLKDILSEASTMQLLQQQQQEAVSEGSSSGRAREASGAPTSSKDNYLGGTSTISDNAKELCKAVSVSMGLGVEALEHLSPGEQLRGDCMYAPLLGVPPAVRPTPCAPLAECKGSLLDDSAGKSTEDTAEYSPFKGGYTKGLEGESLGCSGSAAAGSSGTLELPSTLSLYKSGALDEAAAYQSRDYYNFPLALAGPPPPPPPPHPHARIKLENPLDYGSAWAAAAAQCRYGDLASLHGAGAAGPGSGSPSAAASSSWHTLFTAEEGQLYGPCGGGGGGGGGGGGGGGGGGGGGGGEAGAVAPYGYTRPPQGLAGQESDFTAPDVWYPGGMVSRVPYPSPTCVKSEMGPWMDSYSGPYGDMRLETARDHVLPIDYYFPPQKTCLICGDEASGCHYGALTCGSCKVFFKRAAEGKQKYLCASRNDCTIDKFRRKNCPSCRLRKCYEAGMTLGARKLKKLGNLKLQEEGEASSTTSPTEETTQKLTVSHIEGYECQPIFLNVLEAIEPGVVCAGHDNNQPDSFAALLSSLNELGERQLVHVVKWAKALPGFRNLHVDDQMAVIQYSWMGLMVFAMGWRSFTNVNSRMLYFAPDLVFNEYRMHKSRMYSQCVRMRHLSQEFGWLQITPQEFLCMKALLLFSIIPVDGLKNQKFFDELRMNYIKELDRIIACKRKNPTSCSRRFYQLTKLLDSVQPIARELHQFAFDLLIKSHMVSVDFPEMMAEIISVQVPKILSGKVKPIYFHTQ
Sequence of T877A AR mutant (Q96SW2 whole entry partner): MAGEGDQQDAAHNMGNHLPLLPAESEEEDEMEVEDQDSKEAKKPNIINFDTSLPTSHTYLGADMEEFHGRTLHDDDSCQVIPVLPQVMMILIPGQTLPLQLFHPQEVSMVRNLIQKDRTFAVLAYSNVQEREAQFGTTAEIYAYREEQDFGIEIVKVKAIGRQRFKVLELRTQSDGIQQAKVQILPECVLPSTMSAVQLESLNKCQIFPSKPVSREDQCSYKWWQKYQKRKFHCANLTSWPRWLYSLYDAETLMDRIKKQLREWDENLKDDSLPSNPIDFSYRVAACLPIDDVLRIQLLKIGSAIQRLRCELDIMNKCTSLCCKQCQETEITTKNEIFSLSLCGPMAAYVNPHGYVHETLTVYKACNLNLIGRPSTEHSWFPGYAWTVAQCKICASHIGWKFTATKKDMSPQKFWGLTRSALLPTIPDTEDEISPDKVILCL

T2 sequence (P10275 whole entry T878A): as the sequence (P10275 whole entry T878A) above
T2 sequence (Q96SW2 whole entry partner): as the sequence (Q96SW2 whole entry partner) above

Turning to `N#Cc1ccc(N2CCC(C(=O)Nc3ccc(N4CCC(CN5CCN(CC6CCN(c7ccc8c(c7)C(=O)N(C7CCC(=O)NC7=O)C8=O)CC6)CC5)CC4)cn3)CC2)cc1C(F)(F)F` (stereo not shown) [Example 6, 1-(4-cyano-3-(trifluoromethyl)phenyl)-N-(5-(4-((4-((1-(2-(2,6-dioxopiperidin-3-yl)-1,3-dioxoisoindolin-5-yl)piperidin-4-yl)methyl)piperazin-1-yl)methyl)piperidin-1-yl)pyridin-2-yl)piperidine-4-carboxamide], the “inhibited the expression of AR-V7” value in test [1] came to 87%. In test [2], this molecule registered an inhibition at 0.01 µM of 83%, an inhibition at 0.1 µM of 99% and an inhibition at 1 µM of 99%. The same molecule registered an inhibition at 10 µM in test [2] (10 μM compound) of 97%. In addition, the “degradation activity for the T877A AR mutant” value in test [3] is 73%.

In the case of `N#Cc1ccc(N2CCC(C(=O)Nc3ccc(OC4CCN(CC5CCN(c6ccc7c(c6)C(=O)N(C6CCC(=O)NC6=O)C7=O)CC5)CC4)cn3)CC2)cc1C(F)(F)F` (stereo not shown) [Example 169, 1-(4-cyano-3-(trifluoromethyl)phenyl)-N-(5-((1-((1-(2-(2,6-dioxopiperidin-3-yl)-1,3-dioxoisoindolin-5-yl)piperidin-4-yl)methyl)piperidin-4-yl)oxy)pyridin-2-yl)piperidine-4-carboxamide], in test [1], the “inhibited the expression of AR-V7” value was 48%. In addition, in test [2], the inhibition at 0.01 µM was 85%, testing at 0.1 µM gave an inhibition of 99% and the inhibition at 1 µM is 99%.
